# Key:
# Assay type in all cases: cell-based
# [1] = molecular target: T1, IDO1 (Homo sapiens, UniProt P14902); experiment: IDO1 Cellular Assay in Hela Cells Stimulated with IFNγ; set-up: endogenous in cells; host or cells: HeLa cells stimulated with IFNγ (100 ng/mL); conditions: Hela cells stimulated with IFNγ 100 ng/mL, 300 uM L-tryptophan, about 48 hours, fluorescence readout
# Outline: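 HeLa cells with 300 uM L-tryptophan, IFNγ-stimulated (unstimulated cells as max-effect control), exposed to compound (ten 3-fold dilutions) for about 48 h at 37 °C. IC50 by four-parameter logistic fit.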
# [2] = molecular target: T2, TDO (Homo sapiens, UniProt P48775); experiment: TDO Cellular Assay in Frozen SW48 Cells; conditions: 300 uM L-tryptophan, about 48 hours, fluorescence readout
# T2 construct: endogenous in cells; host or cells: SW48 cells (A2780 cells as control with minimal TDO activity)
# T2 sequence (P48775 whole entry): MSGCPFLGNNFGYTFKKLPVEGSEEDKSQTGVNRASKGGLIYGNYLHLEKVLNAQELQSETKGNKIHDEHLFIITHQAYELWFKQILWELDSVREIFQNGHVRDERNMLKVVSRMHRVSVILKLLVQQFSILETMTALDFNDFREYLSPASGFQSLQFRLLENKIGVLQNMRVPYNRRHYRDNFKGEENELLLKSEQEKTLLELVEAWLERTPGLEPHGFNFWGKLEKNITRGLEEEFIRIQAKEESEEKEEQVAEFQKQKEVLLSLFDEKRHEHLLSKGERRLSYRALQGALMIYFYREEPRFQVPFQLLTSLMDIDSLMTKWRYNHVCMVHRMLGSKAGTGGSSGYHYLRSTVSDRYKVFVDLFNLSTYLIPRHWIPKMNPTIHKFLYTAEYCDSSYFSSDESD
# Outline: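 SW48 cells in RPMI with 300 uM L-tryptophan were incubated ~48 h at 37° C with compounds in ten 3-fold dilutions. Signal was corrected for A2780 background and normalised to DMSO-only SW48 wells, with IC50 from a four-parameter logistic fit.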
# [3] = molecular target: T1, IDO1; experiment: IDO1 HEK293 Cellular Assay; conditions: HEK293 cells transfected with Flag-IDO1 vector, 20-24 hours, fluorescence readout
# Description: IDO1 HEK293 Cellular Assay
# Compounds to be tested were serially diluted in ten 3-fold steps in DMSO starting from 10 mM DMSO stocks. Compound dilutions or DMSO alone were then dispensed from the dilution plate into a Greiner black 384-well assay plate (catalog #781086) using an Echo 550 acoustic liquid handler (Labcyte).
# HEK293 cell pellets were resuspended to 5×10^5 cells/mL in complete HEK293 culture media (89% DMEM, 10% FBS, 1% penicillin/streptomycin). Suspended cells (2 mL) were dispensed into each well of a 6-well Corning plate (Catalog #3516). Cells were allowed to attach and were incubated for 20 hours at 37° C. in a 5% CO2 incubator. Flag-IDO1 vector (Genscript True ORF Gold, 2 ug) in 150 uL of Opti-MEM medium was added to each well of a Corning 24 well plate (Cat #3527) and incubated for 5 minutes at room temperature. To each well of the 24-well plate was added […] Lipofectamine 2000 (Gibco) and the plate incubated at room temperature for 20-30 minutes. To each well of attached cells in the 6-well plate, […] of the transfection mix from the 24-well plate was gently added to each well and IDO1 protein was allowed to express for 24-30 hours at 37 degrees Celsius in a 5% CO2 incubator.
# Media was removed from the cells which were then washed with 2 mL Dulbecco's phosphate-buffered saline (DPBS). After removal of DPBS, 0.5 mL of TrypLE (Gibco) was added and incubated at 5 minutes until cells lift from the surface of the wells. Complete HEK293 culture media (4 mL) was added to each well and cells were collected and pooled into a conical tube. Cells were pelleted at 200×g for 5 minutes and resuspended in an equal volume of complete DMEM medium. Cells were diluted to 4×10^5 cells per mL in complete HEK293 media. L-Tryptophan was added to give a final concentration of […]. The diluted transfected cells […] or nontransfected cells […] were dispensed into wells of Greiner black 384-well assay plates (catalog #781086) containing previously diluted compounds. The plate is briefly mixed and centrifuged at 200×g for 10 seconds to collect cells at the bottom of the plate. Plates were covered and incubated for 20-24 hours at 37 degrees C. in a 5% CO2 incubator. Afterwards […] of 0.5 M methyl isonipecotate in dimethyl sulfoxide was added to each well, mixed, sealed, and centrifuged at 500 rpm for 10 seconds. Plates were incubated at 37 degrees in a 5% CO2 incubator overnight to develop fluoresence. The plates are allowed to cool and then centrifuged for 1 minute at 1000×g. The resulting fluoresence was measured in an Envision plate reader (Perkin Elmer) with a 400/25 nm excitation filter and an 510/20 nm emission filter.
# The fluoresence intensity of each well was corrected for the background observed in wells with untransfected cells and was expressed as a fraction of the intensity observed in wells of IDO1 transfected cells and DMSO only. Potencies were calculated by linear least squares fit to the four parameter logistic IC50 equation.
# T1 sequence (P14902 whole entry): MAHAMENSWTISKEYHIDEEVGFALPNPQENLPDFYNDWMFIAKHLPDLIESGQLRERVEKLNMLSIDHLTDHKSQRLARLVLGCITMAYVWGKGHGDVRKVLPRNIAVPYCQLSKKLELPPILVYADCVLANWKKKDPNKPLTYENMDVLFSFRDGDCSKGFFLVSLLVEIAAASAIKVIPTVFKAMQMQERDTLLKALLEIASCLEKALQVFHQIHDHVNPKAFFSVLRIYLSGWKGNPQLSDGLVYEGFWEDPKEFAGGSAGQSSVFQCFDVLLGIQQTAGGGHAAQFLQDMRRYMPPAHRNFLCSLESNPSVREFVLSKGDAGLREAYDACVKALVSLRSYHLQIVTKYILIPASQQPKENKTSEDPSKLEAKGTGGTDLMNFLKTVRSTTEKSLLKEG
IC50 [1],IC50 [2],IC50 [3],Structure (SMILES)
39 nM,1210 nM,23 nM,"O=C(Nc1ccc(C2(NC(=O)c3cscn3)CCC2)cc1)c1cccc(Cl)c1 [Example 14, N-(1-{4-[(3-chlorobenzene-1-carbonyl)amino]phenyl}cyclobutyl)-1,3-thiazole-4-carboxamide]"
108 nM,≥ 10000 nM,125 nM,"O=C(Nc1ccc(C2(NC(=O)c3ccc(Cl)cc3)CCC2)cc1)c1cncnc1 [Example 17, N-(4-{1-[(4-chlorobenzene-1-carbonyl)amino]cyclobutyl}phenyl)pyrimidine-5-carboxamide]"
53 nM,2510 nM,14 nM,"O=C(Nc1ccc(C2(NC(=O)c3nccs3)CCC2)cc1)c1cccc(Cl)c1 [Example 15, N-(1-{4-[(3-chlorobenzene-1-carbonyl)amino]phenyl}cyclobutyl)-1,3-thiazole-2-carboxamide]"
92 nM,≥ 10000 nM,92 nM,"O=C(Nc1ccc(C2(NC(=O)c3cncnc3)CCC2)cc1)c1cccc(Cl)c1 [Example 18, N-(1-{4-[(3-chlorobenzene-1-carbonyl)amino]phenyl}cyclobutyl)pyrimidine-5-carboxamide]"
28 nM,585 nM,16 nM,"O=C(Nc1ccc(C2(NC(=O)c3ncco3)CCC2)cc1)c1cccc(Cl)c1 [Example 12, N-(1-{4-[(3-chlorobenzene-1-carbonyl)amino]phenyl}cyclobutyl)-1,3-oxazole-2-carboxamide]"
